Data on 1 molecule can be found in US5159085A, “2-anilino phenylacetic acid derivatives as inhibitors of PLA2 and lipoxygenase” (American Home Products Corporation, priority 1991, dated 1992).

pIC50: −log10 of the molar value.

The test system of assay [1] is LTB4 synthesis by rat glycogen-elicited polymorphonuclear leukocytes (lipoxygenase). In words: Inhibition of LTB4 synthesis by rat glycogen-elicited polymorphonuclear leukocytes (PMN). The class given is cell-based, rat (female Wistar). The conditions noted are these: Rattus norvegicus, Leukocyte, A 23187 and exogenous AA. From the text:
This is especially true with respect to 5,12-diHETE, which is also denoted as LTB4 [see Ford-Hitchinson, J. Roy. Soc. Med., 74, 831 (1981)]. Compounds which inhibit the PLA2 -mediated release of arachidonic acid thereby effectively prevent the oxidation of arachidonic acid to the various leukotriene products via the lipoxygenase cascade. Accordingly, the specificity of action of PLA2 inhibitors can be determined by the activity of test compounds in this assay, which measures the ability of compounds to inhibit the synthesis of LTB4 by rat glycogen-elicited polymorphonuclear leukocytes (PMN) in the presence of exogenous substrate.
The assay is carried out as follows:
Rat polymorphonuclear leukocytes (PMNs) are obtained from female Wistar rats (150-200 g) which receive an injection of 6% glycogen (10 ml i.p.). Rats are sacrificed 18-24 hours post injection by CO2 asphyxiation and the elicited cells are harvested by peritoneal lavage using physiological saline (0.9% NaCl). The exudate is centrifuged at 400×g for 10 minutes. The supernatant fluid is discarded and the cell pellet is resuspended to a concentration of 2.0×10^7 cells/ml in HBSS containing Ca^++ and Mg^++ and 10 μM L-cysteine.
To 1 ml aliquots of cell suspension, test drugs or vehicle are added, then preincubated at 37° C. for 10 minutes. A 23187 (1 μM), [^3 H]-AA (3.0 μCi/ml) and unlabeled AA (1 μM) are then added and the samples are further incubated for 10 minutes. The reaction is terminated by centrifugation and pelleting cells. Supernatants are then analyzed by HPLC analysis on a 15 cm×4.6 mm ID supelcosil LC-18 (Supelco)(3M) column, using a two solvent system at a flow rate of 1.4 ml total flow as follows:
Gradient: (system is equillibrated with Solvent A)
Percent solvent changes are accomplished in a linear fashion.
Injections: 150 μl of each supernatant is injected directly onto column and ^3 H arachidonic acid metabolites are monitored using an on-line radioactivity detector (Ramona, IN/US, Fairfield, NJ).
Standards: 10^4 -2.0×10^4 dpm of eicosanoids of interest are injected in 90 μl EtOH cocktail.
Co-chromatography with standard [^3 H] leukotriene B4 (LTB4) in medium of stimulated PMN exposed to drug is compared to that found in medium of stimulated cells exposed to no drug, generating percent inhibition.
Results are expressed as percent inhibition at a given compound dose or as an IC50 value.

Another assay addresses Bee Venom PLA2 (Apis mellifera, UniProt P00630). Kind of assay: biochemical. The conditions noted are these: read-out: % Inhibition at a concentration of 10 μM, Bee Venom.
The target of assay [2] is T1, LTD4 (isolated guinea pig trachea) (Cavia porcellus, UniProt Q2NNR5).
T1 construct: the neck is opened and the trachea removed; from tissue; host or cells: tracheal rings of male Hartley guinea pigs
T1 sequence (Q2NNR5 1-340): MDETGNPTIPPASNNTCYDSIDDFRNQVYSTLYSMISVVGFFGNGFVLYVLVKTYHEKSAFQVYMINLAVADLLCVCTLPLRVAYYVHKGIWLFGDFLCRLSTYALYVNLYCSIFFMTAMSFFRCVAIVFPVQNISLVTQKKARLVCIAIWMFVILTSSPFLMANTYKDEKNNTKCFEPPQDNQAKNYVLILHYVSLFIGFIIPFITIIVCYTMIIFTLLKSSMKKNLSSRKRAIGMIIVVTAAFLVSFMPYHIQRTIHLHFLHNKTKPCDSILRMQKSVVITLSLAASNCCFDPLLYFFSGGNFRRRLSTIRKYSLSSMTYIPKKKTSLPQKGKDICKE
In words: In vitro isolated guinea pig trachea assay, LTD4 antagonist activity. Conditions: Table VII. Also on record: species or system guinea pig (male Hartley). The protocol:
The LTD4 antagonist activity of the compounds of the invention is assessed in the in vitro isolated guinea pig trachea assay. This assay is carried out as follows: Male Hartley guinea pigs (350-400 g) are euthanized by a blow to the head, the neck is opened and the trachea removed. The trachea is maintained in aerated physiological salt solution, cleared of connective tissue and fat and cut into rings approximately 2 mm in width (usually containing two cartilaginous segments per ring). Two pieces of silk suture are then passed through the lumen of the tracheal ring and are tied around the cartilage, one on each side of the trachealis muscle. […] The tracheal rings are maintained at 2 g resting tension and equilibrated for 45 minutes (with frequent washing and readjustment of resting tension). […] All responses to LTD4 in an individual tissue are measured as a percentage of the reference contraction of that tissue to carbachol. LTD4 antagonist activity is determined by comparison of the concentration response curves of LTD4 in the presence and absence of antagonist. Assessment of the relative rightward shift of the antagonist treated curve relative to the solvent (control) treated tissue is calculated as a concentration ratio (Eq. A) and used in subsequent calculations to derive an antagonist pKB value (Eqs B and C). […]

Sequence of Bee Venom PLA2 (P00630 34-167 limits assumed): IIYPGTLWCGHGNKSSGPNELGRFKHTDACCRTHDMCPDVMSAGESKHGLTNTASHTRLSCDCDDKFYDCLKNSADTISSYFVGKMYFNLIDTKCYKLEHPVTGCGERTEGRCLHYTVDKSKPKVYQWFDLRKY

Consider `O=C(O)Cc1cc(OCc2ccc3ccccc3n2)ccc1Nc1c(Cl)cccc1Cl` [Example 2, 2-[(2,6-Dichlorophenyl)amino]-5-(2-quinolylmethoxy)benzene acetic acid], for which the pIC50 (in general, −log10 of the IC50, conventionally taken in molar units) in assay [1] was 8.00. Further, on Bee Venom PLA2, the inhibition at 10 µM was 38.7%. Moreover, the Kb (in general, the equilibrium dissociation constant of an antagonist, usually derived from a functional assay) in assay [2] was 550 nM.
